From patent publication US20160304552A1, “MODIFIED NUCLEIC ACID MOLECULES AND USES THEREOF” (MODERNA THERAPEUTICS, INC., priority 2013, published 2016)

Tests used:
T7 RNA polymerase = T7 RNA polymerase (Escherichia phage T7, UniProt P00573); assay: In vitro transcription yields of modified mRNA; format: biochemical; settings: for EPO In Vitro Transcription yield: EPO mRNA made with the modified NTP(s); for GCSF In Vitro Transcription yield: GCSF mRNA made with the modified NTP(s); for Luc In Vitro Transcription yield: Luciferase mRNA made with the modified NTP(s)
Method: The in vitro transcription reaction generates mRNA containing modified nucleotides or modified RNA. The input nucleotide triphosphate (NTP) mix is made in-house using natural and unnatural NTPs.
A typical in vitro transcription reaction includes the following:
Incubation at 37° C. for 3 hr-5 hrs.
The crude IVT mix may be stored at 4° C. overnight for cleanup the next day. 1 U of RNase-free DNase is then used to digest the original template. After 15 minutes of incubation at 37° C., the mRNA is purified using Ambion's […]™ Kit (Austin, Tex.) following the manufacturer's instructions. This kit can purify up to 500 μg of RNA. Following the cleanup, the RNA is quantified using the NanoDrop and analyzed by agarose gel electrophoresis to confirm the RNA is the proper size and that no degradation of the RNA has occurred.
Modified mRNAs in TE buffer (1 μl) are used for Nanodrop UV absorbance readings to quantitate the yield of each modified mRNA from an in vitro transcription reaction (UV absorbance traces are not shown).

human PBMC = assay: PBMC cytokine assay, interferon-alpha production (IFN-alpha multi-subtype ELISA); format: cell-based
Method: 50 mL of human blood from three donors was received from Research Blood Components (Brighton, Mass.) in sodium heparin tubes. […] The tubes were centrifuged at 2000 rpm for 30 minutes with low acceleration and braking (Thermo, Waltham, Mass., 75004506). The tubes were removed and the buffy coat PBMC layers were gently transferred to a fresh 50 mL conical and washed with DPBS. The tubes were centrifuged at 1450 rpm for 10 minutes. The supernatant was aspirated and the PBMC pellets were resuspended and washed in 50 mL of DPBS. The tubes were centrifuged at 1450 rpm for 10 minutes. […] The cell suspensions were adjusted to a concentration of 3.0×10^6 cells/mL live cells. […] Within 30 minutes, transfection mixtures were added to each well at a volume of 50 μL per well. […] The transfection mixtures were then transferred to each of the human PBMC plates at 50 μL per well (6 wells per mRNA sample). The plates were then incubated at 37° C. […] In order to harvest the supernatant, plates were centrifuged at 1450 rpm for 5 min in a swinging plate rotor. The supernatant of 6 wells transfected with the same mRNA was carefully harvested and pooled in a single well of a fresh 96-well plate. Supernatants were either frozen or used fresh until ELISA analysis was done. The ability of unmodified and modified mRNA to trigger innate immune recognition as measured by interferon-alpha production.

BJ fibroblast cells = assay: Cytokine screen in BJ fibroblast cells, human CCL-5/RANTES ELISA; format: cell-based; settings: BJ fibroblasts, 500 ng modRNA, 18 h to 22 h
Method: At 2 or 3 days prior to transfection, 100,000 BJ fibroblast cells (ATCC no. CRL-2522; Manassas, Va.) were harvested by treatment with trypsin-EDTA solution (LifeTechnologies, Grand Island, N.Y.) and seeded in a total volume of 500 ul EMEM medium (supplemented with 10% FCS and 10% Glutamax, both LifeTechnologies, Grand Island, N.Y.) per well in 24-well cell culture plates (Corning, Manassas, Va.). The cells were grown at 37° C. in a 5% CO2 atmosphere overnight. On the next day, 500 ng modRNA, harboring chemical modifications on the bases or the ribose units, were diluted in 25 ul final volume of OPTI-MEM (LifeTechnologies, Grand Island, N.Y.). Lipofectamine 2000 (LifeTechnologies, Grand Island, N.Y.) was used as transfection reagent and 1.0 ul was diluted in 25 ul final volume of OPTI-MEM. After 5 min incubation at room temperature, both solutions were combined and incubated an additional 15 min at room temperature. The 50 ul were added to the 500 ul cell culture medium containing the BJ fibroblast cells. The plates were then incubated as described above.
After 18 h to 22 h incubation, cell culture supernatants were collected and centrifuged at 10,000 rcf for 2 min. The cleared supernatants were transferred and analyzed with a human IFN-beta ELISA (R&D Systems, Minneapolis, Minn.; Cat. #s 41410-2) and human CCL-5/RANTES ELISA (R&D Systems, Minneapolis, Minn.; Cat. #s SRN00B) according to the manufacturer instructions. All samples were diluted until the determined values were within the linear range of the ELISA standard curves using a BioTek Synergy H1 plate reader (BioTek, Winooski, Vt.).

Chain of T7 RNA polymerase (P00573 whole entry): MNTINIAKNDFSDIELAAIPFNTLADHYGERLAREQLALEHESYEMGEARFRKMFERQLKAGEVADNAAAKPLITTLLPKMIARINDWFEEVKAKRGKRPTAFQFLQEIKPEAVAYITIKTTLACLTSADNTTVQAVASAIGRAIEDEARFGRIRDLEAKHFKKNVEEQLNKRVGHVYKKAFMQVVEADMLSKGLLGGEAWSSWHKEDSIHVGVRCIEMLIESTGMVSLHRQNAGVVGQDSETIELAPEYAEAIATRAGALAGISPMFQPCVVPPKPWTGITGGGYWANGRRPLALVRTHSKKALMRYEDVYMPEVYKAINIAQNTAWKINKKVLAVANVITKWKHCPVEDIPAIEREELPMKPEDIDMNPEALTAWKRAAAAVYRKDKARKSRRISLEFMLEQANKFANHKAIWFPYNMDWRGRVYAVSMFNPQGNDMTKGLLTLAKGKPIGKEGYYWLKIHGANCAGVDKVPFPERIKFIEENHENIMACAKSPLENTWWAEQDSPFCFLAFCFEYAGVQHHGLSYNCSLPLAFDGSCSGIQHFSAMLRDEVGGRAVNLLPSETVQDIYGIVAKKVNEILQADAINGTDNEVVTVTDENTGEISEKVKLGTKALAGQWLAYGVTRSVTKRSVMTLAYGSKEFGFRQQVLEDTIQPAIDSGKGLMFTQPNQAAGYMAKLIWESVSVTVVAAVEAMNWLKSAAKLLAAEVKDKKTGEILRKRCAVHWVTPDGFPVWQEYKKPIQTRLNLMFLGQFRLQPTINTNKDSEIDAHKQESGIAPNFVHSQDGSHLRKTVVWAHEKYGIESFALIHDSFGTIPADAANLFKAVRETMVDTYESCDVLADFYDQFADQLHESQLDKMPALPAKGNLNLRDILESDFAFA

Row | Compound | EPO In Vitro Transcription yield (T7 RNA polymerase) [mg] | GCSF In Vitro Transcription yield (T7 RNA polymerase) [mg] | Luc In Vitro Transcription yield (T7 RNA polymerase) [mg] | further results
1 | CNCc1cn([C@@H]2O[C@H](COP(=O)(O)OP(=O)(O)OP(=O)(O)O)C(O)C2O)c(=O)[nH]c1=O (stereo partly drawn) [00901013006 (353), 5-Methylamino methyl-UTP] | 0.3060 | 0.3494 | 0.2914 | –
2 | O=c1[nH]c(=S)ccn1[C@@H]1O[C@H](COP(=O)(O)OP(=O)(O)OP(=O)(O)O)C(O)C1O (stereo partly drawn) [00901013011 (2), 4-Thio-UTP] | 0.0416 | 0.0759 | 0.1625 | –
3 | Cn1c(=O)[nH]cc([C@@H]2O[C@H](COP(=O)(O)OP(=O)(O)OP(=O)(O)O)C(O)C2O)c1=O (stereo partly drawn) [00901015187 (236), 3-Methyl-pseudo-UTP] | 0.0125 | 0.0120 | 0.0152 | –
4 | Nc1nc(=O)n([C@@H]2O[C@H](COP(=O)(O)OP(=O)(O)OP(=O)(O)O)C(O)C2O)cc1C(F)(F)F (stereo partly drawn) [00901016002 (351), 5-Trifluoromethyl-CTP] | – | – | – | interferon-alpha concentration in PBMC supernatant (human PBMC; Luc mRNA, 1st value in cell): 6670 pg/mL; interferon-alpha concentration in PBMC supernatant (human PBMC; Luc mRNA, 2nd value in cell): 2190 pg/mL; interferon-alpha concentration in PBMC supernatant (human PBMC; Luc mRNA, 3rd value in cell): 6410 pg/mL; interferon-alpha concentration in PBMC supernatant (human PBMC; hEPO mRNA, 1st value in cell): 4440 pg/mL; interferon-alpha concentration in PBMC supernatant (human PBMC; hEPO mRNA, 2nd value in cell): 3100 pg/mL; interferon-alpha concentration in PBMC supernatant (human PBMC; hEPO mRNA, 3rd value in cell): 1412.5 pg/mL; interferon-alpha concentration in PBMC supernatant (human PBMC; hGCSF mRNA, 1st value in cell): 6253.33 pg/mL; interferon-alpha concentration in PBMC supernatant (human PBMC; hGCSF mRNA, 2nd value in cell): 6725 pg/mL; interferon-alpha concentration in PBMC supernatant (human PBMC; hGCSF mRNA, 3rd value in cell): 6280 pg/mL
5 | Nc1nc(N)c2ncn([C@@H]3O[C@H](COP(=O)(O)OP(=O)(O)OP(=O)(O)O)C(O)C3O)c2n1 (stereo partly drawn) [03601011002 (154), 2-Amino-ATP] | 0.2612 | 0.1567 | 0.1215 | –
6 | O=c1[nH]c(=O)n(CC(F)(F)F)cc1[C@@H]1O[C@H](COP(=O)(O)OP(=O)(O)OP(=O)(O)O)C(O)C1O (stereo partly drawn) [03601015005 (175), 1-(2,2,2-Trifluoroethyl) pseudo-UTP] | 0.3379 | 0.2332 | 0.4388 | –
7 | Cn1c(N)nc2c(ncn2[C@@H]2O[C@H](COP(=O)(O)OP(=O)(O)OP(=O)(O)O)C(O)C2O)c1=O (stereo partly drawn) [Compound 00901012008, N1-Me-GTP] | 0.0032 | 0.0050 | 0.0059 | –
8 | Cn1c(=N)ccn([C@@H]2O[C@H](COP(=O)(O)OP(=O)(O)OP(=O)(O)O)C(O)C2O)c1=O (stereo partly drawn) [Compound 00901014006, 3-Methyl-CTP] | 0.0060 | 0.0141 | 0.0068 | –
9 | Nc1ccn([C@@H]2O[C@H](COP(=O)(O)OP(=O)(O)OP(=O)(O)O)C(O)C2O)c(=S)n1 (stereo partly drawn) [Compound 00901014010, 2-Thio-CTP] | 0.0061 | 0.0076 | 0.0073 | –
10 | N4-acetyl-cytidine TP, ATP, GTP, UTP | – | – | – | Luc mRNA RANTES (BJ fibroblast cells): 2546 pg/mL; hEpo mRNA RANTES (BJ fibroblast cells): 4360 pg/mL; hGCSF mRNA RANTES (BJ fibroblast cells): 4103 pg/mL
11 | pseudouridine TP, ATP, GTP, CTP | – | – | – | Luc mRNA RANTES (BJ fibroblast cells): 4600 pg/mL; hEpo mRNA RANTES (BJ fibroblast cells): 5490 pg/mL; hGCSF mRNA RANTES (BJ fibroblast cells): 5016 pg/mL
